How the values were obtained:
Experiment in all cases: relative viability (nuclei count vs DMSO), 5 days (fraction); higher = more cells survive
Ispinesib + Navitoclax = compound: Cc1ccc(C(=O)N(CCCN)[C@@H](c2nc3cc(Cl)ccc3c(=O)n2Cc2ccccc2)C(C)C)cc1 [Ispinesib] + CC1(C)CCC(c2ccc(Cl)cc2)=C(CN2CCN(c3ccc(C(=O)NS(=O)(=O)c4ccc(N[C@H](CCN5CCOCC5)CSc5ccccc5)c(S(=O)(=O)C(F)(F)F)c4)cc3)CC2)C1 [Navitoclax] (partner 0.5 µM)
Summary of the method: (§1)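 Lung cancer cell lines in 1536-well plates got either a single drug or a fixed anchor-drug dose together with five library-drug doses (not always all listed) in √10 steps, by pin tool, on the day after seeding. Nuclei were counted after 5 days, and relative viability is the treated-to-vehicle ratio of nuclei counts. Values are medians of duplicate plates.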

Linsitinib + Foretinib = compound: C[C@]1(O)C[C@@H](c2nc(-c3ccc4ccc(-c5ccccc5)nc4c3)c3c(N)nccn32)C1 [Linsitinib] + COc1cc2c(Oc3ccc(NC(=O)C4(C(=O)Nc5ccc(F)cc5)CC4)cc3F)ccnc2cc1OCCCN1CCOCC1 [Foretinib] (partner 0.25 µM)
Summary of the method: as §1

Ispinesib + Linsitinib = compound: Cc1ccc(C(=O)N(CCCN)[C@@H](c2nc3cc(Cl)ccc3c(=O)n2Cc2ccccc2)C(C)C)cc1 [Ispinesib] + C[C@]1(O)C[C@@H](c2nc(-c3ccc4ccc(-c5ccccc5)nc4c3)c3c(N)nccn32)C1 [Linsitinib] (partner 1 µM)
Summary of the method: as §1

Linsitinib + Bortezomib = compound: C[C@]1(O)C[C@@H](c2nc(-c3ccc4ccc(-c5ccccc5)nc4c3)c3c(N)nccn32)C1 [Linsitinib] + CC(C)C[C@H](NC(=O)[C@H](Cc1ccccc1)NC(=O)c1cnccn1)B(O)O [Bortezomib] (partner 0.002 µM)
Summary of the method: as §1

Cell Line	relative viability (Ispinesib + Navitoclax; first compound 0.001 µM)	relative viability (Ispinesib + Navitoclax; first compound 0.003162 µM)	relative viability (Ispinesib + Navitoclax; first compound 0.01 µM)	relative viability (Ispinesib + Navitoclax; first compound 0.03162 µM)	relative viability (Ispinesib + Navitoclax; first compound 0.1 µM)	relative viability (Linsitinib + Foretinib; first compound 0.01 µM)	relative viability (Linsitinib + Foretinib; first compound 0.03162 µM)	relative viability (Linsitinib + Foretinib; first compound 0.1 µM)	relative viability (Linsitinib + Foretinib; first compound 1 µM)	relative viability (Ispinesib + Linsitinib; first compound 0.001 µM)	relative viability (Ispinesib + Linsitinib; first compound 0.003162 µM)	relative viability (Ispinesib + Linsitinib; first compound 0.01 µM)	relative viability (Ispinesib + Linsitinib; first compound 0.03162 µM)	relative viability (Ispinesib + Linsitinib; first compound 0.1 µM)	relative viability (Linsitinib + Bortezomib; first compound 0.01 µM)	relative viability (Linsitinib + Bortezomib; first compound 0.03162 µM)	relative viability (Linsitinib + Bortezomib; first compound 0.1 µM)	relative viability (Linsitinib + Bortezomib; first compound 0.3162 µM)	relative viability (Linsitinib + Bortezomib; first compound 1 µM)	relative viability (Linsitinib + Foretinib; first compound 0.3162 µM)
HCC-15	0.792	0.82	0.848	0.665	0.401	1.08	1.01	1.04	0.809	0.998	1.06	1.06	0.663	0.415	1.04	0.938	1.1	0.297	0.785	
EPLC-272H	1.24	1.21	1.25	0.784	1.02	0.72	0.693		0.656	1.17	1.53	1.48	1.05	1.06	0.882	1.11	1.06		0.857	
NCI-H2009	1.28	1.23	1.32	0.678	0.374	1.25	1.18	1.26	1.24	1.28	1.18	1.29	0.957	0.475	1.01	0.926	1.07	0.185	0.898	
NCI-H520	1.02	1.14	1.04	0.274	0.286	0.704	0.529	0.988	0.952	1.13	0.957	1.08	0.245	0.232	0.666	0.331	0.754		0.62	
NCI-H2405	0.884	0.72	0.942	0.779	0.276	1.01	1.04	1.06	0.813	0.974	0.755	0.968	0.783	0.435	0.592	0.929	0.949	0.676	0.921	0.965
LCLC-97TM1	0.433	0.489	0.52	0.557	0.157	0.971	0.95	0.879	0.823	0.205	0.152	0.175	0.262	0.169	0.316	0.488	0.578	0.236	0.18	0.832
NCI-H727		0.519	0.507	0.387	0.26	0.836	0.866	0.647	0.611		0.303	0.235	0.244	0.223	0.86	0.856	0.948	0.392	0.501	0.632
NCI-H2228	0.896	0.896	1.37	0.878	0.187	0.86	0.845	0.735	0.619	0.839	0.607	1	0.803	0.338	1.05	0.89	0.787	0.72	0.765	0.746
PC-3 [JPC-3]	0.826	0.875	0.782	0.797	0.784	1.04	1.03	1.04	0.922	0.937	0.917	0.949	0.989	1.03	0.745	0.824	0.821	0.637	0.713	0.951
NCI-H596	0.865	0.9	1.07	1.05	0.458	0.831	0.978	0.873	0.858	1.29	0.988	1.17	1.06	0.551	1.12	0.996	0.974	0.872	1.06	0.871
NCI-H1299	1.02	1.08	1.08	1.01	0.52	1.07	1.11	1.13	1.11	1.06	1.12	0.81	0.941	0.375	1.06	0.972	1.05	0.944	0.986	1.12
NCI-H460	1.43	1.33		0.785	0.0262	1.02	1.05	0.969	1.02	1.02	0.922	1.09	0.268	0.0336	1.07	1.07	1.14	0.92	1.07	0.935
NCI-H647	1.22	0.978	1.41	0.461	0.0986	1.14	1.23	1.19	1.17	1.2	1.26	0.949	0.607	0.144	1.03	1.12	1.07		0.811	
NCI-H838	1.33	1.23	1.37	0.994	0.25	0.996	0.855	0.894	0.716	1.09	1.17	1.29	0.92	0.256	0.809	0.898	0.755	0.153	0.385	
PC-14	1.13	1.14	1.22	0.43	0.104	0.888	0.912	0.995	0.901	1.08	1.13	1.1	0.862	0.17	0.792	0.762	1.02	0.923	0.767	0.626
NCI-H1915	0.84	0.804	0.778	0.759	0.566	1.13	1.08	1.08	0.923	1.13	1.24	1.08	1.12	1.03	0.948	0.979	0.961	0.918	0.671	0.986

— the supplement of paper PMC10307832
